The values that follow come from patent publication US5744494A, “Synergistic compositions containing benzimidazole anthelmintics and methylenedioxyphenyl compounds” (priority 1993, dated 1998).

The conditions of series [1]: pretreatment with 2-diethylaminoethyl-2,2-diphenylvalerate hydrochloride and piperonyl butoxide; Food Chem. Toxicol. 1992, 30(12), 1021-30; cited from earlier work.
Series [2] relates to hepatocytes cultured from rats. An excerpt: An experiment using hepatocytes cultured from rats has been initiated to determine the metabolic interactions of piperonyl butoxide and fenbendazole (50 micromoles).
Series [3] is described as follows: in vivo. The note with it: for AUC: goat, po, 7.5 mg/kg. Here is the method: In order to minimise interindividual variations our experimental protocol was designed as a crossover (each animal was used as its own control). A five week wash-out period was allowed between crossovers. Six goats were used in this experiment.
First period: Fenbendazole (Panacur 2.5%) was administered orally at a dose rate of 7.5 mg/kg. Blood samples were taken prior to drug administration and 0.25, 0.5, 1, 2, 4, 8, 12, 24, 32, 48, 72 and 96 hours thereafter.
Second period: One hour before administration of fenbendazole (7.5 mg/kg) the animals received a dose of piperonyl butoxide (0.5 g/kg) given intramuscularly. Blood samples were taken as in the first period.
Plasma samples were analysed for fenbendazole by High Performance Liquid Chromatography.

Series [4] relates to benzimidazole resistant Ostertagia circumcincta. Briefly: Numbers of O. circumcincta in sheep at necropsy (dilution method). Type of series: in vivo. Here is the method:
(§1) A study was carried out to determine the efficacy of the piperonyl butoxide: fenbendazole combination and to compare it with piperonyl-butoxide and fenbendazole alone against benzimidazole resistant abomasal parasites.
(§2) Twenty-four parasite naive Suffolk cross lambs were allocated into four groups of six. Each lamb received an oral dose of 6,000 benzimidazole resistant Ostertagia circumcincta and 2,400 benzimidazole resistant Haemonchus contortus.
(§3) Twenty-eight days after infection animals were treated as follows:
(§4) Group 2 Piperonyl butoxide (63 mg/kg) by stomach tube.
(§5) Group 3 Fenbendazole (5 mg/kg) by stomach tube.
(§6) Group 4 Piperonyl butoxide (63 mg/kg) and fenbendazole
(§7) (5 mg/kg) by stomach tube.
(§8) All lambs were faecal sampled and killed seven days after treatment (day 35). Nematode egg numbers were determined in faeces by the McMaster egg counting technique (Gordon and Whitlock (1939) J. Council for Scientific and Industrial Res., 12,50) and numbers of O. circumcincta were determined by the dilution method of Ritchie et al. (1966), Amer J. Vet. Res., 27, 659-667. Total abomasal counts of H. contortus were determined.

The test system of series [5] is benzimidazole resistant Ostertagia circumcincta and Haemonchus contortus. In words: Faecal egg counts in infected lambs (McMaster egg counting technique). The series is classed as in vivo. The procedure:
as §1, §2, §3, §4, §5, §6, §7, §8

Series [6] concerns benzimidazole resistant Haemonchus contortus. In words: Total abomasal counts of H. contortus in sheep at necropsy. The series is classed as in vivo. Particulars: for numbers of H.contortus at necropsy, effect in words: 7 days after treatment; for Mean ±SD numbers of H. contortus in sheep killed 7 days after treatment: piperonyl butoxide 63 mg/kg and/or fenbendazole 5 mg/kg by stomach tube, no treatment 345 ± 69. The procedure:
as §1, §2, §3, §4, §5, §6, §7, §8

Molecules are shown by their SMILES.

As for `c1ccc2[nH]c(-c3cscn3)nc2c1` [thiabendazole], the “acute toxic effects on the kidneys of mice” value in series [1] is recorded as “enhanced”.

As to `COC(=O)Nc1nc2ccc([S+]([O-])c3ccccc3)cc2[nH]1` (stereo not shown) [Fenbendazole sulfoxide, fenbendazole sulfoxide], in series [2], the “concentrations of the sulfoxide and sulfone metabolites” value is listed as “much reduced”. In addition, the AUC in series [3] (Area under plasma-concentration-time curve (Active alone), active alone, goats, fenbendazole 7.5 mg/kg oral) is 7720 ng·h/mL.

For the compound `COC(=O)Nc1nc2ccc(Sc3ccccc3)cc2[nH]1` [Fenbendazole, fenbendazole], the “reduction of number of O.circumcincta in the abomasa, in words” value in series [4] (at necropsy, alone) is “Neither piperonyl butoxide nor fenbendazole alone significantly reduced”. In addition, the “Mean ±SD numbers of O. circumcincta in sheep killed 7 days after treatment” value in series [4] (piperonyl butoxide 63 mg/kg and/or fenbendazole 5 mg/kg by stomach tube, no treatment 2985 ± 654) is 2875 ± 1308. Besides, the “Mean ±SD faecal egg counts in sheep seven days after treatment” value in series [5] (piperonyl butoxide 63 mg/kg and/or fenbendazole 5 mg/kg by stomach tube, no treatment 491 ± 267) is 100 ± 84 Eggs per gram of faeces. Besides, in series [5] (seven days after treatment), the “reduction in faecal egg counts” value is 79.7%. For the same compound, in series [6], the “numbers of H.contortus at necropsy, effect in words” value was “significantly reduced” and the “Mean ±SD numbers of H. contortus in sheep killed 7 days after treatment” value came to 58 ± 29. In series [3], the “area under the plasma concentration-time curve (AUC), change in words” value was “significant increase” and the “residence time, change in words” value is recorded as “significantly prolonged”. In addition, the AUC in series [3] (Area under plasma-concentration-time curve (Active alone)) worked out at 4170 ng·h/mL. Besides, the AUC in series [3] (Area under plasma-concentration-time curve (Active plus piperonyl butoxide)) stood at 16600 ng·h/mL.

For `CCCCOCCOCCOCc1cc2c(cc1CCC)OCO2` [Piperonyl butoxide, piperonyl butoxide], the “effect on oxidative metabolism of fenbendazole by rat liver cells” value in series [2] is “inhibiting the oxidative metabolism of fenbendazole”. Also, in series [6], the “numbers of H.contortus at necropsy, effect in words” value is “no effect” and the “Mean ±SD numbers of H. contortus in sheep killed 7 days after treatment” value is 320 ± 133.

Usually AUC stands for the area under the concentration-time curve, a measure of exposure.
